Measured values: ChEMBL document CHEMBL4725292 (J Med Chem, 2020)

How the values were obtained:
THP-1 = test: Antiproliferative activity against human THP-1 cells after 72 hrs by cell titer glo assay; assay type: functional, cell-based; settings: THP-1, 72 h
MV4-11 = test: Antiproliferative activity against human MV4-11 cells after 72 hrs by cell titer glo assay; assay type: functional, cell-based; settings: MV4-11, 72 h
Blood [1] = test: Inhibition of LPS-induced IL6 production in human whole blood preincubated for 30 mins followed by LPS addition and measured after overnight incubation by mesoscale assay; assay type: functional, tissue-based
Blood [2] = test: Inhibition of LPS-induced MCP1 production in human whole blood preincubated for 30 mins followed by LPS addition and measured after overnight incubation by mesoscale assay; assay type: functional, tissue-based
HL-60 = test: Antiproliferative activity against human HL-60 cells after 72 hrs by cell titer glo assay; assay type: functional, cell-based; settings: HL-60, 72 h
Blood [3] = test: Inhibition of LPS-induced TNFalpha production in human whole blood preincubated for 30 mins followed by LPS addition and measured after overnight incubation by mesoscale assay; assay type: functional, tissue-based
[4] = target: Bromodomain-containing protein 4 (Homo sapiens, UniProt O60885, Y390A); test: Displacement of Alexa Fluor 647 labelled ligand from His6-thr-tagged BRD4 BD1 (1 to 477 residues)/BD2 Y390A mutant (unknown origin) after 30 mins by TR-FRET assay
[5] = Lipophilicity, logD of the compound at pH 7.4 by chromatographic method; assay type: physicochemical; settings: buffer
[6] = Inhibition of LPS-induced MCP1 production in PBMC (unknown origin); assay type: functional, tissue-based
[7] = Permeability of the compound in pH 7.4 phosphate buffer measured after 3 hrs by artificial membrane permeability assay based HPLC analysis; assay type: ADME; settings: for Papp at 3 h: PAMPA, pH 7.4, read-out: permeability
[8] = Selectivity index, […] for His6-thr-tagged BRD4 BD1 (1 to 477 residues)/BD2 Y390A mutant (unknown origin) to pIC50 for LPS-induced MCP1 production in PBMC (unknown origin)
[9] = target: Bromodomain-containing protein 4 (Homo sapiens, UniProt O60885, Y97A); test: Displacement of Alexa Fluor 647 labelled ligand from His6-tagged BRD4 BD2 (1 to 477 residues)/BD1 Y97A mutant (unknown origin) after 30 mins by TR-FRET assay
[10] = target: T1, ATPase family AAA domain-containing protein 2 (Homo sapiens, UniProt Q6PL18); test: Inhibition of ATAD2 (unknown origin) by TR-FRET assay
T1 sequence (Q6PL18 whole entry): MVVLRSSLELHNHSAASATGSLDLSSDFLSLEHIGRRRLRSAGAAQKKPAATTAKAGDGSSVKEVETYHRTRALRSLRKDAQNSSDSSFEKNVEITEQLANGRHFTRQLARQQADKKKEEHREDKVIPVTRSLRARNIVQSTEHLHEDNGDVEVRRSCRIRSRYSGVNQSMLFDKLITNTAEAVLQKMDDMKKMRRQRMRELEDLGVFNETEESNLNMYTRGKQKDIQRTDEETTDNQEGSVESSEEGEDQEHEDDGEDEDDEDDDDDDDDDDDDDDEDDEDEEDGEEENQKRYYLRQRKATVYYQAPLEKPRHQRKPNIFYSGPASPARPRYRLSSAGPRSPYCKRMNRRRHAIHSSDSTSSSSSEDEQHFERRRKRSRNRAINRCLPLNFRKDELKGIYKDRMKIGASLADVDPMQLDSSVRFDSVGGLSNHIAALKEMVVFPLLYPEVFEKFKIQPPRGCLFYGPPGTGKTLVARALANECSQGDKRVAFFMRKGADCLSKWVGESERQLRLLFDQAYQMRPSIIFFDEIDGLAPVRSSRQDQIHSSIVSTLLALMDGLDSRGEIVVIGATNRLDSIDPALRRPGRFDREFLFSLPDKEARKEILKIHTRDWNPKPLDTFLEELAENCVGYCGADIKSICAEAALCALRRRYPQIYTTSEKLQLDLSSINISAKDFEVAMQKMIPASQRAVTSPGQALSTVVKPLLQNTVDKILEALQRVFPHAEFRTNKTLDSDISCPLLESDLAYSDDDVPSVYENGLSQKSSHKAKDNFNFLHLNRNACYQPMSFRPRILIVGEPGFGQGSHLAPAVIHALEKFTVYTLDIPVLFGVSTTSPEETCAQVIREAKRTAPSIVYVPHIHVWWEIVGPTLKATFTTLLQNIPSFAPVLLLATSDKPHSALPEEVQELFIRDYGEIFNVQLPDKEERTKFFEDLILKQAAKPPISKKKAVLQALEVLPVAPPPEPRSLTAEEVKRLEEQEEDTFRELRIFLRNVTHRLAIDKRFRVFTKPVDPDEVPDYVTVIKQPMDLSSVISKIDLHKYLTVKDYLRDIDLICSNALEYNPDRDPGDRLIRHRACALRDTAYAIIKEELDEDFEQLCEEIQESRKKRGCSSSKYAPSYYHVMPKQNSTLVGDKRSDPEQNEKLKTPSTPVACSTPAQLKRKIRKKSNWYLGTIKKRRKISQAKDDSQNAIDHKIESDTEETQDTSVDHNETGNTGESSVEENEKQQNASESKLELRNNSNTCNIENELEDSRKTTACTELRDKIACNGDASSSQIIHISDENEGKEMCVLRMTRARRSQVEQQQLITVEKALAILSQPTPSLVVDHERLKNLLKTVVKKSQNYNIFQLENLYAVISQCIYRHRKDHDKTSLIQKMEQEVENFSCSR

[11] = system: Bromodomain-containing protein 4 (Homo sapiens), O60885 [UNDEFINED MUTATION]; test: Selectivity index, […] for His6-thr-tagged BRD4 BD1 (1 to 477 residues)/BD2 Y390A mutant (unknown origin) to pIC50 for His6-tagged BRD4 BD2 (1 to 477 residues)/BD1 Y97A mutant (unknown origin)

For `COc1cc2c(cc1-c1c(C)noc1C)ncc1[nH]c(=O)n([C@H](C)c3ccccn3)c12`, the IC50 (THP-1) was 134 nM, the IC50 (MV4-11) was 127 nM and the IC50 (Blood [1]) was 1030 nM. For the same compound, the IC50 (Blood [2]) was 300 nM, the IC50 (HL-60) was 195 nM and the IC50 (Blood [3]) was 380 nM.

Compound `Cc1cc2c(-c3ccco3)cnc(N[C@@H]3CCNC[C@H]3C(=O)NC3CCCCC3)c2[nH]c1=O` has an IC50 [4] of 20 nM, a chromatographic logD [5] of 3.12 and an IC50 [6] of 200 nM. For the same compound, the permeability ([7]; artificial membrane, pH 7.4, 3 h, 3 h) was 1.9 ×10⁻⁶ cm/s, the “Selectivity Index” value [8] was 10 and the IC50 [9] was 12600 nM.

Compound `Cc1cc2ccnc(N[C@@H]3CCNC[C@H]3C(=O)NC3CCCCC3)c2[nH]c1=O` (racemic) has an IC50 [4] of 794 nM, a chromatographic logD [5] of 2.03 and an IC50 [10] of over 39800 nM. For the same compound, the Papp at 3 h [7] was under 0.3 ×10⁻⁶ cm/s, the Selectivity Index [11] was over 60 and the IC50 [9] was over 50100 nM.

In the case of `Cc1cc2c(-c3ccco3)ccc(N[C@@H]3CCNC[C@H]3C(=O)NC3CCCCC3)c2[nH]c1=O` (racemic), the IC50 [4] is reported as 316 nM, the chromatographic logD [5] is reported as 3.66 and the Papp at 3 h [7] is reported as under 1 ×10⁻⁶ cm/s. It also gave a Selectivity Index [11] of 50 and an IC50 [9] of 15800 nM.
